How the values were obtained:
MSP142 [1] = target: T1, MSP142 (Plasmodium falciparum, UniProt Q8I0U8); assay: inhibition of suramin binding (fluorescence, 384-well plate); settings: 10 μM analogue, 2 μM suramin, 0.1 mg/ml MSP142
Experimental: MSP142 (0.1 mg/ml), 10 μM suramin analogue and 2 μM suramin were combined in a 384-well black polypropylene low binding plate (total reaction volume 100 μL). Fluorescence was read at λex 320 nm/λem 405 nm on a BMG Polarstar fluorimeter. Readings were taken before, and 1 hour after, addition of suramin.
Target sequence in this assay (Q8I0U8 1327-1699): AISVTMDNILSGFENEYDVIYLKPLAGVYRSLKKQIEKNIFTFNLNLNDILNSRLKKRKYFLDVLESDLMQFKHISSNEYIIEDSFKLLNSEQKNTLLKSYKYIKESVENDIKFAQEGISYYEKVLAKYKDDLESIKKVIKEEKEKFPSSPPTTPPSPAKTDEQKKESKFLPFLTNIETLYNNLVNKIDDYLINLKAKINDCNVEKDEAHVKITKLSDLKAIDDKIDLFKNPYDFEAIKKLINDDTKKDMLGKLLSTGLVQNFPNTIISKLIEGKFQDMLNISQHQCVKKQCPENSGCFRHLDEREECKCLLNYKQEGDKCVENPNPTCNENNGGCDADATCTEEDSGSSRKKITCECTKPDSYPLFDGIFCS

[2] = titration of fluorescent analogues in PBS buffer only; assay type: physicochemical; settings: 0.01-200 μM
Experimental: Analogues 258, 261, 264 and 266 were titrated against (a) PBS buffer only, (b) 0.1 mg/ml bovine serum albumin in PBS or (c) 0.1 mg/ml MSP142 in PBS. Fluorescence observed was compared to naphthalenetrisulphate (non-specific reagent) and suramin.

P. falciparum (FCB-1) = assay: growth inhibition assay by [3H] hypoxanthine uptake; assay type: cell-based, Plasmodium falciparum; settings: 200 μM
Experimental: Asexual blood stages of P. falciparum (FCB-1) were maintained at 37° C. in RPMI 1640/Albumax medium (Gibco) supplemented with 2 mM L-glutamine as previously described (Blackman, 1994 Methods Cell Biol. 45, 213-220). Cultures were gassed with 7% CO2, 5% O2 and 88% N2 and maintained by routine passage in fresh human erythrocytes. Parasites were synchronised by Percoll and sorbitol treatment (Holder & Freeman, 1982 J. Exp. Med. 156, 1528-1538); schizonts were purified by centrifugation over Percoll and then returned to culture in the presence of fresh erythrocytes. After 4 h, during which time released merozoites invaded erythrocytes, the cells were treated with 5% sorbitol for 10 min to lyse the residual schizonts, before returning the parasites to culture.
Suramin and NTS were also assayed for P. falciparum growth inhibition using [^3H] hypoxanthine uptake (generally as described by Desjardins et al, 1979 Antimicrob. Agents Chemother. 16, 710-718). Serial dilutions of the compounds in 96-well plates were incubated at 37° C. with purified mature schizonts at a final parasitaemia of ^˜0.5% and a haematrocrit of ^˜2% in triplicate cultures. […] The filters were wetted with scintillation cocktail and the bound radioactivity counted in a β-counter. […] The amount of radioactivity in each sample was expressed as a percentage of activity in the control wells containing no compound. […]

MSP142 [3] = target: T1, MSP142; assay: P. falciparum MSP1 secondary processing assay (merozoites, Western blot); assay type: biochemical; parameters: Merozoites were purified as described previously; endogenous in cells; host or cells: purified P. falciparum merozoites released from mature schizonts; settings: 1 mM, 1 h at 37° C.
Experimental: Merozoites were purified as described previously (Blackman 1994 Methods Cell Biol. 45, 213-220) after release from mature schizonts into growth medium supplemented with 2 mM EGTA. Merozoites were harvested by centrifugation, followed by sequential passage through pre-wetted filters of 3 and 1.2 μm pore size. Merozoites were washed in Ca^2+- and Mg^2+-free PBS in the presence of protease inhibitors (leupeptin, antipain and aprotinin at 10 μg ml^−1). The merozoites were then washed and resuspended in 50 mM Tris-HCl pH 7.2, 5 mM CaCl2, 1 mM MgCl2, plus leupeptin, antipain and aprotinin at 10 μg ml^−1 (processing buffer), and divided into 18 μl aliquots. Two microlitres of either diluted compound or reaction buffer were added and the samples incubated for 1 h at 37° C. Control assays included those in which processing was prevented by immediate addition of either SDS, 1 mM PMSF or 5 mM EGTA; and those in the absence of compound or in the presence of 0.2 mM TLCK (tosyl-L-lysyl chloromethyl ketone). After 1 h the reaction was stopped, and MSP1 processing was analysed using a Western blot-based assay (Blackman 1994 Methods Cell Biol. 45, 213-220). The blots were probed with a rabbit anti-MSP133/MSP142 antibody and the bands corresponding to MSP142 and MSP133 polypeptides were visualised by enhanced chemiluminescence.
Purified merozoites were incubated in the presence or absence of suramin or NTS and polypeptides subjected to SDS-PAGE and Western blotting.
Target sequence in this assay (Q8I0U8 20-1326): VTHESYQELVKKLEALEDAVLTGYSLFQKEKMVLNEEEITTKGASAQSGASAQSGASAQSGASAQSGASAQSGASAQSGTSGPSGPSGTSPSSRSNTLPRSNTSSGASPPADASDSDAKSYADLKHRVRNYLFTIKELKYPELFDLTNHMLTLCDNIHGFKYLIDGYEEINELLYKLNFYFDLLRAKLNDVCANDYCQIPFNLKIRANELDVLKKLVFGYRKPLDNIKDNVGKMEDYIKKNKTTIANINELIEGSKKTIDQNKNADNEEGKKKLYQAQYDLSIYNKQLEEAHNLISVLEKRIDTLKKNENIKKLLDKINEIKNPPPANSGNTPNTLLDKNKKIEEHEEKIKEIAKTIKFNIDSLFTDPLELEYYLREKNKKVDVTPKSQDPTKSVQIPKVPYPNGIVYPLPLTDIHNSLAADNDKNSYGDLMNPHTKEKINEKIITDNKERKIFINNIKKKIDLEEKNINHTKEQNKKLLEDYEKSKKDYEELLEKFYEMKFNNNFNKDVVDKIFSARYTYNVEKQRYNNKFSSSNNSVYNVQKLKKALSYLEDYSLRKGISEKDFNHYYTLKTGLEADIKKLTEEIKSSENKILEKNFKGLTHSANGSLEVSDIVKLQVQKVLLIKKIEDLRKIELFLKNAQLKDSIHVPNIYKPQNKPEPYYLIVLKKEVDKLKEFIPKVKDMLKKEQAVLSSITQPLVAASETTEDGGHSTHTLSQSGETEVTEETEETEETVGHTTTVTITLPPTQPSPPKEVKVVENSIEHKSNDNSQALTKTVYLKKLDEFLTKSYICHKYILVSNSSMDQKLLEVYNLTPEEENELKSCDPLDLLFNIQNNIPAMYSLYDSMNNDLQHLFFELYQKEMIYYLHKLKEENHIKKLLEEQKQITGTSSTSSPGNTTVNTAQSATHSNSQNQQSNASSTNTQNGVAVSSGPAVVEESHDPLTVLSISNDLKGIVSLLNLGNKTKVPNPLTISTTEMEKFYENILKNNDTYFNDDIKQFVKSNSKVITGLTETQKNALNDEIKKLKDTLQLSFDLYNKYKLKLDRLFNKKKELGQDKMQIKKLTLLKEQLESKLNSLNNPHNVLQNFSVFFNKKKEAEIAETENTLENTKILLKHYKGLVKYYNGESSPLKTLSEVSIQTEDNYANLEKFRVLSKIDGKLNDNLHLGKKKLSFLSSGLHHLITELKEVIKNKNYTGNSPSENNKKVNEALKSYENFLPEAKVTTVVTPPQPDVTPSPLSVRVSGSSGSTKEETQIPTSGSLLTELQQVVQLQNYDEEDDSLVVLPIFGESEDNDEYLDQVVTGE
Target sequence in this assay (Q8I0U8 1327-1699): as the sequence (Q8I0U8 1327-1699) above

| Structure (SMILES) | effect on the fluorescent signal of suramin / own fluorescence (MSP142 [1]) | fluorescence in buffer alone [2] | inhibition of invasion at the highest concentration tested (P. falciparum (FCB-1)) | inhibition of MSP142 secondary processing (MSP142 [3]) |
| --- | --- | --- | --- | --- |
| O=S(=O)(O)c1ccc2c(S(=O)(=O)O)cc(S(=O)(=O)O)cc2c1 [NTS, Naphthalene-1,3,6-trisulphonic acid] | most fluorescent compound tested | fluorescent in buffer alone | did not inhibit invasion |  |
| O=S(=O)(F)Cc1ccccc1 [PMSF] |  |  |  | absence of MSP133 |

Source: US20070003987A1, “Screening method for substance binding to merozoite surface protein-1/42” (priority 2003, published 2007)
